Experimental findings from publication PMC5708334, “Synthesis of kinase inhibitors containing a pentafluorosulfanyl moiety” (Organic & Biomolecular Chemistry, 2017) are described below.

Some results are limits rather than exact numbers.

The target of one assay is PDGFRα (h) (Homo sapiens, UniProt P16234). Kind of assay: Biochemical kinase assay (CEREP). As to conditions: for IC50: 10 μM ATP, performed by CEREP.
Another assay concerns the target T1, DYRK3 (h) (Homo sapiens, UniProt O43781).
T1 sequence (O43781 1-588): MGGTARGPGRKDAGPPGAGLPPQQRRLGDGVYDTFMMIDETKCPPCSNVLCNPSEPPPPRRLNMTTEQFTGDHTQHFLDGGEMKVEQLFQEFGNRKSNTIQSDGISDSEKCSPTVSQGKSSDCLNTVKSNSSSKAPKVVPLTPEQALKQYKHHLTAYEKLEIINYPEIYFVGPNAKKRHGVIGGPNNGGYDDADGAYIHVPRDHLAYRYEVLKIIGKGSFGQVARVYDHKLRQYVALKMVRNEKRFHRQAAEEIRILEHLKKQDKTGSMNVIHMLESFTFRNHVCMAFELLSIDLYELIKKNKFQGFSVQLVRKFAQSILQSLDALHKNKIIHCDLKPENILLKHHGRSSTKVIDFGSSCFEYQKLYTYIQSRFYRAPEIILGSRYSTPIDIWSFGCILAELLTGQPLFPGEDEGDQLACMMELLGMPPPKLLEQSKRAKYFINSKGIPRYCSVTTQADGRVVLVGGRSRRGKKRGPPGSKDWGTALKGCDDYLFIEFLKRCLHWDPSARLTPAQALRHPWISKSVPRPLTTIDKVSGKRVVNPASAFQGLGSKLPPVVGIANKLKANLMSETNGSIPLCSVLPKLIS
Kind of assay: Biochemical kinase assay (CEREP). As to conditions: for IC50: 10 μM ATP, performed by CEREP.

The target in the next assay is FLT-4 (h) (VEGFR3) (Homo sapiens, UniProt P35916). In words: Biochemical kinase assay (CEREP). As to conditions: for IC50: 10 μM ATP, performed by CEREP. The method, then:
We tested all synthetic compounds against a panel of kinases in a biochemical assay. Each data point was measured in duplicate (technical replicates). […] Additional kinase binding studies were performed vs. a select group of functionally and structurally divergent kinases including AAK1 (Adaptor-associated protein kinase 1), BMP2K (BMP-2-inducible protein kinase, where BMP is bone morphogenic protein), GAK (Cyclin G-associated kinase) and STK16 (Serine/threonine-protein kinase 16) (Table 1).

Assay [1] addresses BMP2K (BMP-2-inducible protein kinase) (Homo sapiens, UniProt Q9NSY1). Kind of assay: Kinase binding displacement assay. The following applies: no ATP present.
Assay [2] concerns the target AAK1 (Adaptor-associated protein kinase 1) (Homo sapiens, UniProt Q2M2I8). Kind of assay: Kinase binding displacement assay. As to conditions: no ATP present.
The target in assay [3] is STK16 (Serine/threonine-protein kinase 16) (Homo sapiens, UniProt O75716). Kind of assay: Kinase binding displacement assay. As to conditions: no ATP present.
STK16 (Serine/threonine-protein kinase 16), sequence (O75716 whole entry, species assumed): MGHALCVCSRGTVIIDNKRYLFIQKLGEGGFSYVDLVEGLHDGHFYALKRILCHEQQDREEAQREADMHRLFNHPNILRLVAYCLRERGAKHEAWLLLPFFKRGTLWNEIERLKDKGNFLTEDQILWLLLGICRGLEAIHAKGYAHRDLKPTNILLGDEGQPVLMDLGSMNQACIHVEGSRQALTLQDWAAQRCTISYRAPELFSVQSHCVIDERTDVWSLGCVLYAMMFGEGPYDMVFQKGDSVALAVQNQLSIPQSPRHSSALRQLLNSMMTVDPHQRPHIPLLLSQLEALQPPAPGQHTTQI
Assay [4] relates to MCF7 and T47D breast cancer cell. Kind of assay: Cell proliferation assay (range over both lines). It counts as cell-based. As to conditions: range over both compounds and both cell lines; read-out: GC50 values, MCF7 and T47D (range). The source says: (§1) The synthesized compounds were next tested in breast cancer and non-transformed breast cell lines.
Another assay deals with MCF7. Kind of assay: Cell proliferation assay. In kind it is cell-based. As to conditions: Homo sapiens, 50% reduction in cellular proliferation vs DMSO-treated control, read-out: GC50 MCF7.
Description: as §1

Another assay deals with T47D. Kind of assay: Cell proliferation assay. In kind it is cell-based. The following applies: Homo sapiens, 50% reduction in cellular proliferation vs DMSO-treated control, read-out: GC50 T47D.
Description: as §1

The target in assay [5] is T2, GAK (Cyclin G-associated kinase) (Homo sapiens, UniProt O14976).
T2 sequence (O14976 1-1311): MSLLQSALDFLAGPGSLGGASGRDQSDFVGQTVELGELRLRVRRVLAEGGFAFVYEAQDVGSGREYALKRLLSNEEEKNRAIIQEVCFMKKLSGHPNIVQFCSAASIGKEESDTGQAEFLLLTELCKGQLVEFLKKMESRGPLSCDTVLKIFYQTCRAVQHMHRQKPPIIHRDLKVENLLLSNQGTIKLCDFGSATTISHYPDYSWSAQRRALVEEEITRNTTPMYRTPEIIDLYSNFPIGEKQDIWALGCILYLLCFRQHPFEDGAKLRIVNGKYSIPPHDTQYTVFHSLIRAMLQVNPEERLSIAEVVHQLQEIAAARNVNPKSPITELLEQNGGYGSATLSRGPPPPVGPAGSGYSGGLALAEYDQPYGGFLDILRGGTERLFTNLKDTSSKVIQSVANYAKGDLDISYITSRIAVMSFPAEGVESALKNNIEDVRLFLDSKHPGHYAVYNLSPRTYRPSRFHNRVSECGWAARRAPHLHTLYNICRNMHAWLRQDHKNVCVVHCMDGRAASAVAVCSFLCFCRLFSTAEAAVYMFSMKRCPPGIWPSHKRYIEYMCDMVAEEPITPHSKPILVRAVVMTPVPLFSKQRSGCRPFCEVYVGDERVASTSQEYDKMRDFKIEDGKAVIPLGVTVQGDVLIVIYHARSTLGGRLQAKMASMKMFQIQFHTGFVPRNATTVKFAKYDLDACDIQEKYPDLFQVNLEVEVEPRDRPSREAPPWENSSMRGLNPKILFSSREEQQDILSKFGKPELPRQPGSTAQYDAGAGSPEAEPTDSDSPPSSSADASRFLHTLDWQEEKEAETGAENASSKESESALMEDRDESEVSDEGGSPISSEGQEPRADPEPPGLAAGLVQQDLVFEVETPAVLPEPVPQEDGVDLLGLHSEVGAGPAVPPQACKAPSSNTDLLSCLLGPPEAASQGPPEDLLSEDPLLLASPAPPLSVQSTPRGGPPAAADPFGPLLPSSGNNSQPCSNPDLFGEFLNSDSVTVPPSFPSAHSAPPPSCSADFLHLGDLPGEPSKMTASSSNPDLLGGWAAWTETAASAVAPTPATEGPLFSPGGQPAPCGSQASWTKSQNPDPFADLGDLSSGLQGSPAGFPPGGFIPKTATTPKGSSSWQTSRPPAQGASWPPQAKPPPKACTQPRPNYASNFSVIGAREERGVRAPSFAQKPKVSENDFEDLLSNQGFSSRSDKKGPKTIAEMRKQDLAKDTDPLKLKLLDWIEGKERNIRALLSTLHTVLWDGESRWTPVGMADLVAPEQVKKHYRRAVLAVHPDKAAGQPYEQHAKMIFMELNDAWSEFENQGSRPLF
Kind of assay: Kinase binding displacement assay. As to conditions: no ATP present.

PDGFRα (h), sequence (P16234 24-1089): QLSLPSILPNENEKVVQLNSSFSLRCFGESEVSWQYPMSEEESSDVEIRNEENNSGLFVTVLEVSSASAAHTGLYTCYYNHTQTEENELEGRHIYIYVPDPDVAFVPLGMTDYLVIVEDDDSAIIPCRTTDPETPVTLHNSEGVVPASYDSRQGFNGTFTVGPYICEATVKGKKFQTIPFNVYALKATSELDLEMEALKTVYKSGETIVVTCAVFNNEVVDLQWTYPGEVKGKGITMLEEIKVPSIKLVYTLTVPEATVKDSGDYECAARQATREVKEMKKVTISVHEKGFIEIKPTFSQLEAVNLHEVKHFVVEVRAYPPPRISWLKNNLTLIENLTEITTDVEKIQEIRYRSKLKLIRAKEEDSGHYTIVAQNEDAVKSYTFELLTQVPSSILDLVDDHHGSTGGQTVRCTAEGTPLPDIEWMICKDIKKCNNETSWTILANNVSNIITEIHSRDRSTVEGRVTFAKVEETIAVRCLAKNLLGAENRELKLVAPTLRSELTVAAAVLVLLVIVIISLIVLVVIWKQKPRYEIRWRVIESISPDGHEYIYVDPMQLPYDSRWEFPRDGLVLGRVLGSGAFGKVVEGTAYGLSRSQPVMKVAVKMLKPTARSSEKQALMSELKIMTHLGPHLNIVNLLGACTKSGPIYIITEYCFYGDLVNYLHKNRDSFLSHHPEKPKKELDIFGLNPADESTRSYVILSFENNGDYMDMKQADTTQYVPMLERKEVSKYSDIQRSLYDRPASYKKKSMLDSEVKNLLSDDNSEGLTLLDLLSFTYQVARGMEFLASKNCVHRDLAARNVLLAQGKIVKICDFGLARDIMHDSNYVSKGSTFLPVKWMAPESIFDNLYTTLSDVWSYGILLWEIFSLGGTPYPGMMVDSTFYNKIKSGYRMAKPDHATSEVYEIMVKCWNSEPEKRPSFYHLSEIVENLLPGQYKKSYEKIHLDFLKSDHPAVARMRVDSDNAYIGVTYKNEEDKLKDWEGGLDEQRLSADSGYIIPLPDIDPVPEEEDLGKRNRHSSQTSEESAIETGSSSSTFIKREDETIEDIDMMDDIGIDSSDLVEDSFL
AAK1 (Adaptor-associated protein kinase 1), sequence (Q2M2I8 whole entry, species assumed): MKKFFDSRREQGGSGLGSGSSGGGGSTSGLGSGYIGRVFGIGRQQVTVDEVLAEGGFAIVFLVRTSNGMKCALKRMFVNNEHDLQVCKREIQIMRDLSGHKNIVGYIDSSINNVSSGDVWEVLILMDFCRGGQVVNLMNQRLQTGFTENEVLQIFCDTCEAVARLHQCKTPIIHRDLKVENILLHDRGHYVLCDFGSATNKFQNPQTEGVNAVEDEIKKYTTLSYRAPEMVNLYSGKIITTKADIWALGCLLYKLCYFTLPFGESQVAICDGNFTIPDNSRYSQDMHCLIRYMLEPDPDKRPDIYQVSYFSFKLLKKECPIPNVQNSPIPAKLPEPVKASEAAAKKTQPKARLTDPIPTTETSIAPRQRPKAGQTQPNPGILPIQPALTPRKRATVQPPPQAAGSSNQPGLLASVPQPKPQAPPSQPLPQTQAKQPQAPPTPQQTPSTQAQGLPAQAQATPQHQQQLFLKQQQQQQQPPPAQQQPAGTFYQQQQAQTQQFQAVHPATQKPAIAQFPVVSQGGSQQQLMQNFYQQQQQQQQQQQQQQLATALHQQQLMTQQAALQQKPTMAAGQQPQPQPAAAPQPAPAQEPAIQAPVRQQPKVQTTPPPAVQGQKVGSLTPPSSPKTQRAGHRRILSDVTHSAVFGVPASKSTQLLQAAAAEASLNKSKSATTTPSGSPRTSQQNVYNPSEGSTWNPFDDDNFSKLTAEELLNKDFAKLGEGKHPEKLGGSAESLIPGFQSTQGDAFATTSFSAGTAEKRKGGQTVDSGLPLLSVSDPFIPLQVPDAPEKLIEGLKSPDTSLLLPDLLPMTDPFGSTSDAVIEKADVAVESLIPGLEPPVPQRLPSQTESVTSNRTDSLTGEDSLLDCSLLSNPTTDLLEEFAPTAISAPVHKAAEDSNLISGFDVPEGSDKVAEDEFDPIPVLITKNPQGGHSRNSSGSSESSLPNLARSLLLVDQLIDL
FLT-4 (h) (VEGFR3), sequence (P35916 25-1363): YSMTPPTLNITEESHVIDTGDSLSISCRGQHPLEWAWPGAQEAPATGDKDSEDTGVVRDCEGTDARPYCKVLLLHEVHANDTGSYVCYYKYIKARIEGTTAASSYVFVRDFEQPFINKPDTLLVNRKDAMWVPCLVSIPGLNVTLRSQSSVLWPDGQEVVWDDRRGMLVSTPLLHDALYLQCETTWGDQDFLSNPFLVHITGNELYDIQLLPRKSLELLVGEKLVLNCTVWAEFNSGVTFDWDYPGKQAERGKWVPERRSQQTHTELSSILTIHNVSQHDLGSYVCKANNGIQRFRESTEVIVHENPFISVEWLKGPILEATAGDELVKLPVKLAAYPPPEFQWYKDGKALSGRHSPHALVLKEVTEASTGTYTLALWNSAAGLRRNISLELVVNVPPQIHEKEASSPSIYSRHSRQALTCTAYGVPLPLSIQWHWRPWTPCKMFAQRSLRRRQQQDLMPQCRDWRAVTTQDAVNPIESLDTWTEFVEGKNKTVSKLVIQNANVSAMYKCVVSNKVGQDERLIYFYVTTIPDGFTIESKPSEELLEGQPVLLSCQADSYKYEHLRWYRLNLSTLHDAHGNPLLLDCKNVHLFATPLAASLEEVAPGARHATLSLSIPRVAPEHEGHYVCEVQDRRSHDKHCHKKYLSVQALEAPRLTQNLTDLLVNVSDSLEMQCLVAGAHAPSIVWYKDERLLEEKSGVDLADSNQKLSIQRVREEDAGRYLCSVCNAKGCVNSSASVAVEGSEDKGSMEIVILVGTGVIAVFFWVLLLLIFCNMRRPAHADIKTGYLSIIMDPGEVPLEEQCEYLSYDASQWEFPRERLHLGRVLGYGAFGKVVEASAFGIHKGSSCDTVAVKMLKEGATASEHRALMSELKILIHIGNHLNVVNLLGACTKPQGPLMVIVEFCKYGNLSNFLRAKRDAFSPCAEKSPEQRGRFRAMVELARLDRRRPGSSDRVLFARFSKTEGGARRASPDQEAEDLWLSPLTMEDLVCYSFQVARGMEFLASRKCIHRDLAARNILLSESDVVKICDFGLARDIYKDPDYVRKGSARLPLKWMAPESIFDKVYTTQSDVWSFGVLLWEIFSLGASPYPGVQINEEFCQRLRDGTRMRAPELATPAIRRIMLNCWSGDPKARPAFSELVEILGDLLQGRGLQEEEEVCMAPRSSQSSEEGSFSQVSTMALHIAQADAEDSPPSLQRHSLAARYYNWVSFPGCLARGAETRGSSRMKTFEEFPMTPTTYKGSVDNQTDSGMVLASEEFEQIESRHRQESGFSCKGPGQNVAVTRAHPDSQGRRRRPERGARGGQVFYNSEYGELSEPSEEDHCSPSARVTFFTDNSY
BMP2K (BMP-2-inducible protein kinase), sequence (Q9NSY1 whole entry, species assumed): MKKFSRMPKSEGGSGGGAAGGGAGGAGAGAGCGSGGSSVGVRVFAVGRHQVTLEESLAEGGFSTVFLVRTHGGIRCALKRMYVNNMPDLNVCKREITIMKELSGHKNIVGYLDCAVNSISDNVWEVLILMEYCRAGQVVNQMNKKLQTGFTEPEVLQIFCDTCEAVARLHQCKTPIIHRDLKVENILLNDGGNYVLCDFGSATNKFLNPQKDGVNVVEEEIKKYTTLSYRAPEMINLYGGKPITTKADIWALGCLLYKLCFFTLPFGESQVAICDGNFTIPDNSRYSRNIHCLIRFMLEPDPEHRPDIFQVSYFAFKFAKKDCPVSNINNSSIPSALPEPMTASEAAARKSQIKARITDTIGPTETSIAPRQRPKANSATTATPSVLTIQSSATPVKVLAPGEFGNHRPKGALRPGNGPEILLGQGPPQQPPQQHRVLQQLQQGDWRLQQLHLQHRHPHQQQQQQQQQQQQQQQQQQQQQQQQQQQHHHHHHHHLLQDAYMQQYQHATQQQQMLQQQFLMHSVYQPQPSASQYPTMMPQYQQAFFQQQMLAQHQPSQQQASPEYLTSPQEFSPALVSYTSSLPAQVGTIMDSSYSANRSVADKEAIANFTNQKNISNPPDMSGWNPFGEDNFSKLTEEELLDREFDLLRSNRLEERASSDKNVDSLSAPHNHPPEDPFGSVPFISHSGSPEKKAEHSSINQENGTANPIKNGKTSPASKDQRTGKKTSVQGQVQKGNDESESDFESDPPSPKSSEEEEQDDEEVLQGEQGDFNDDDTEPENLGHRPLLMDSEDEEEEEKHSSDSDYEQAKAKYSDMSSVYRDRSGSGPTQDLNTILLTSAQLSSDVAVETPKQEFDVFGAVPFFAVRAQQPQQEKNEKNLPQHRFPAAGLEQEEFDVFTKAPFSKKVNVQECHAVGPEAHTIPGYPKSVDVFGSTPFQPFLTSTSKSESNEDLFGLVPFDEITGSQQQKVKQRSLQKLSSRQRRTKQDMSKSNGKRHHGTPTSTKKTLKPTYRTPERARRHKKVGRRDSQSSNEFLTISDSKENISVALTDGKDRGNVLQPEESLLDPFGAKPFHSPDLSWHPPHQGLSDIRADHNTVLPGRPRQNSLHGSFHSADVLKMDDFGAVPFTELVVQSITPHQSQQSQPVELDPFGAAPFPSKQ

As to “5-Pentafluorosulfanyl-3-ferrocenylindolin-2-one [Compound 12a]”, the IC50 against PDGFRα (h) was over 1 µM; on DYRK3 (h), 1.7 µM; against FLT-4 (h) (VEGFR3) it was over 1 µM. Further, at DYRK3 (h), the “inhibition of DYRK3” value is given as “low micromolar range”.

In the case of “5-Pentafluorosulfanyl-3-ferrocenylindolin-2-one [Compound 12b]”, the IC50 against PDGFRα (h) was over 1 µM; on DYRK3 (h), 2.4 µM; at FLT-4 (h) (VEGFR3), over 1 µM. For the same compound, the “inhibition of DYRK3” value at DYRK3 (h) is given as “low micromolar range”.

On to `O=C1Nc2ccc(S(F)(F)(F)(F)F)cc2/C1=C/c1ccc[nH]1` [Compound 10, (Z)-3-(1H-Pyrrol-2-yl)methylene-5-pentafluorosulfanylindoline-2-one], for which the IC50 was 0.452 µM in assay [1]; over 1 µM against PDGFRα (h); over 1 µM against DYRK3 (h); 1 µM in assay [2]; over 1 µM against FLT-4 (h) (VEGFR3); 17.6 µM in assay [3]. The IC50 in assay [4] was 0.35 to 3.8 µM; with MCF7, 4.8 ± 1 µM; in the assay on T47D, 0.49 ± 0.4 µM; in [5], 34.2 µM.

Regarding `O=C1Nc2cc(S(F)(F)(F)(F)F)ccc2/C1=C/c1ccc[nH]1` [Compound 11, (Z)-3-(1H-Pyrrol-2-yl)methylene-6-pentafluorosulfanylindoline-2-one], the IC50 in assay [1] is 187 µM; at PDGFRα (h), 0.098 µM; against DYRK3 (h), over 1 µM; in [2], 1000 µM; against FLT-4 (h) (VEGFR3) it was 0.23 µM; in [3], 135 µM. Besides, the IC50 in assay [4] was 0.35 to 3.8 µM; in the assay with MCF7 it was 0.69 ± 0.4 µM; with T47D, 0.35 ± 0.1 µM; in assay [5] it was 0.476 µM. The “potency vs. PDGFRα” value on PDGFRα (h) came out at 0.098 µM.

`Cc1[nH]c(/C=C2\C(=O)Nc3ccc(S(F)(F)(F)(F)F)cc32)c(C)c1CCC(=O)O` [Compound 13, (Z)-3-(2,4-Dimethyl-5-((5-pentafluorosulfanyl-2-oxoindolin-3-ylidene)methyl)-1H-pyrrol-3-yl)propanoic acid]: the IC50 in [1] is over 1 µM; at PDGFRα (h), over 1 µM; on DYRK3 (h), over 1 µM; in assay [2], over 1 µM; at FLT-4 (h) (VEGFR3) it was 0.53 µM; in [3], over 1 µM. Moreover, the IC50 in assay [5] was over 1 µM.

Consider `Cc1[nH]c(/C=C2\C(=O)Nc3cc(S(F)(F)(F)(F)F)ccc32)c(C)c1CCC(=O)O` [Compound 14, (Z)-3-(2,4-Dimethyl-5-((6-pentafluorosulfanyl-2-oxoindolin-3-ylidene)methyl)-1H-pyrrol-3-yl)propanoic acid], for which the IC50 in [1] was over 1 µM; at PDGFRα (h), 0.0031 µM; at DYRK3 (h), over 1 µM; in [2] it was over 1 µM; on FLT-4 (h) (VEGFR3), 0.018 µM; in assay [3], over 1 µM. The IC50 in assay [5] is over 1 µM. In addition, the “IC50 vs. PDGFRα” value against PDGFRα (h) is given as “low nM potency”. Also, the “IC50 vs. VEGFR3” value against FLT-4 (h) (VEGFR3) is listed as “low nM potency”.
